From patent US9265189B2, “Method for reducing damage by harmful organisms in corn cultivation” (SUMITOMO CHEMICAL COMPANY, LIMITED, priority 2012, dated 2016)

Legend:
Assay type in all cases: in vivo
Agriotes spp. [1] = experiment: Field test, corn plants damaged by Agriotes spp. after in-furrow spray (Example 1); details: Example section 1: clothianidin 50 g/ha, in-furrow spray of Dantop 50WG aqueous suspension 100 L/ha, corn DK 440, 35 days after application; non-treatment section 43
Experimental: Using a pneumatic seeder (disk furrow opener, manufactured by Gaspardo) equipped with a power sprayer (trade name: WJR 2525, manufactured by HONDA), a cultivated land was ditched at intervals of 75 cm to a depth of 3 cm from the soil surface, and the furrow was seeded with corn (Zea Mays, trade name: DK 440; hybrid variety, manufactured by Monsanto) at intervals of 13 cm. A seeding density of corn was 100000 seeds/ha. Then, the furrow was spray-treated with an aqueous suspension of a clothianidin water dispersible granule (using a 50% dispersible granule, trade name: Dantop 50WG, manufactured by Philagro) at 100 L/ha so that the application amount of clothianidin was 50 g/ha, and then a soil on the side of the furrow was gathered together to close the furrow. This was defined as an example section 1. For comparison, a non-treatment section, which was seeded with corn without application of a clothianidin water dispersible granule, was provided. […] 35 days after application of the clothianidin water dispersible granule, the number of plants of corn damaged by Agriotes spp. in each of the example section 1 and the non-treatment section was investigated, a damage plant rate was calculated in accordance with the following equation, and then an average damage plants rate of the four investigation sections was determined. […]

Agriotes spp. [2] = experiment: Field test, corn plants damaged by Agriotes spp. after in-furrow spray (Example 2); details: Example section 2: clothianidin 50 g/ha, in-furrow spray of Dantop 50WG aqueous suspension 100 L/ha, corn DK 440, 34 days after application; non-treatment section 73.3
Experimental: Using a pneumatic seeder (disk furrow opener, manufactured by Gaspardo) equipped with a power sprayer (trade name: WJR 2525, manufactured by HONDA), a cultivated land was ditched at intervals of 75 cm to a depth of 3 cm from the soil surface, and the furrow was seeded with corn (Zea Mays, trade name: DK 440; hybrid variety, manufactured by Monsanto) at intervals of […]. A seeding density of corn was 100000 seeds/ha. Then, the furrow was spray-treated with an aqueous suspension of a clothianidin water dispersible granule (using a 50% dispersible granule, trade name: Dantop 50WG, manufactured by Philagro) at 100 L/ha so that the application amount of clothianidin was 50 g/ha, and then a soil on the side of the furrow was gathered together to close the furrow. This was defined as an example section 2. For comparison, a non-treatment section, which was seeded with corn without application of a clothianidin water dispersible granule, was provided. […] 34 days after application of the clothianidin water dispersible granule, the number of plants of corn damaged by Agriotes spp. in each of the example section 2 and the non-treatment section was investigated, a damage plant rate was calculated in accordance with the following equation, and then an average damage plants rate of the four investigation sections was determined. […]

[3] = tested on: Diabrotica virgifera virgifera and Agriotes lineatus; experiment: Field test, lodge rate, clothianidin in-furrow, herbicides plus cyprosulfamide on soil (Example 7); details: clothianidin 50 g/ha in-furrow spray 125 L/ha, thiuram-treated seed, 165 days after application; example in present tense
Source text: A chemical fertilizer (N:P:K=15:15:15) is applied to the soil surface of a cultivated land at 300 kg/ha, and the cultivated land is then plowed. 7 days after fertilization, for suppressing generation of weeds, the soil surface of the whole cultivated land is spray-treated with a mixed liquid containing thiencarbazone-methyl and isoxaflutole, each of which being a herbicide, and cyprosulfamide which is a safener at 150 L/ha so that the application amounts of thiencarbazone-methyl, isoxaflutole and cyprosulfamide are 9.2 g/ha, 23 g/ha and 15 g/ha, respectively. 21 days after fertilization, using a pneumatic seeder (disk furrow opener) equipped with a power sprayer, a cultivated land is ditched at intervals of 75 cm to a depth of 5 cm from the soil surface, and the furrow is seeded with corn (Zea Mays; hybrid variety). […] 165 days after application of the aqueous suspension of clothianidin, the number of plants of corn lodged due to damage by Diabrotica virgifera virgifera and Agriotes lineatus in the furrows of the treatment section and the non-treatment section, for which the number of plants of corn germinated is investigated, is investigated, a lodge rate is calculated in accordance with the following equation, and then an average lodge rate for the four investigation sections is determined.

CN/C(=N\[N+](=O)[O-])NCc1cnc(Cl)s1 [clothianidin]
Damage plant rate (%) (Agriotes spp. [1]): 0% | Damage plant rate (%) (Agriotes spp. [2]): 7.7% | Lodge rate compared to non-treatment section [3]: low lodge rate as compared to the non-treatment section
